The text below walks through data of PubChem BioAssay (NCI).

As usually defined, the TGI is the concentration at which net growth stops. A low value points to greater sensitivity of the cells.

Holding throughout (assay): DTP human tumour cell line panel, 48 h
Test [1] concerns U251 CNS.
Test [2] deals with SF-295 CNS.
Test [3] has as its system OVCAR-5 ovarian.
Test [4] deals with OVCAR-4 ovarian.
Test [5] has as its system HCT-15 colon.
Test [6] relates to SK-MEL-5 melanoma.
Test [7] has as its system SR leukemia.
The test system of test [8] is T-47D breast.
Test [9] relates to MDA-MB-435.
The subject of test [10] is SK-MEL-2 melanoma.

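Exposure lasted 48 hours, with cells grown in 96-well plates and compounds tested at five concentrations. TGI: concentration producing complete growth inhibition.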 Where a SMILES comes first, the peptide text is derived from it. The star is where a group is joined. Fmoc = O=C(OCC1c2ccccc2-c2ccccc21)*; OBn = c1ccc(CO*)cc1; tBu = CC(C)(C)*

As for `CCn1c(-c2cc3ccccc3cc2OC(C)=O)n[nH]c1=S`, the TGI in test [1] was 51.4 µM; in test [2], over 100 µM; in test [3] it was over 100 µM; in [4] it was over 100 µM; in [5] it was 87.1 µM; in [6] it was 38.2 µM. Further, the TGI in test [7] was 4.79 µM; in test [8], 43.3 µM; in [9] it was over 100 µM; in test [10], 41.3 µM.

For the compound `CC[P+](c1ccccc1)(N(C)C)N(C)C`, the concentration for total growth inhibition (TGI) in test [1], in test [2], in test [3], in test [4], in [5] and in test [6] was over 100 µM throughout. For the same compound, the TGI in test [7], in test [8], in test [9] and in test [10] was over 100 µM in each case.

On to `CC(OC(C)(C)C)C(NC(=O)OCC1c2ccccc2-c2ccccc21)C(=O)NC(Cc1ccccc1)C(=O)OCc1ccccc1` (stereo not given) (Fmoc-Thr(tBu)-Phe-OBn; configuration not given here), for which the TGI in test [1], in test [2], in test [3], in test [4], in test [5] and in [6] was over 100 µM each time. Besides, the concentration for total growth inhibition (TGI) in test [7], in test [8], in test [9] and in [10] was over 100 µM each time.

Regarding `CC(=O)CCN1CC2CN=NC2(C#N)C1` (stereo not given), the TGI in [1], in test [2], in [3], in [4], in test [5] and in test [6] was over 100 µM throughout. For the same compound, the TGI in test [7], in test [8], in [9] and in test [10] was over 100 µM in each case.

Turning to `CCOC(=O)c1c(-c2ccc(Cl)cc2)c(C#N)c(=S)n(C2OC(COC(C)=O)C(OC(C)=O)C(OC(C)=O)C2OC(C)=O)c1C` (stereo not given), the TGI in [1], in test [2], in test [3], in test [4], in [5] and in [6] was over 100 µM in each case. The TGI is over 100 µM in test [7], over 100 µM in test [8], over 100 µM in test [9] and over 66 µM in test [10].

As for `COC(=O)c1c2c(cc3c1CC1(Cc4cc5c(cc4C1)CCCC5)C3)CCCC2`, the TGI in test [1], in [2], in [3], in [4], in [5] and in [6] was over 100 µM in each case. Moreover, the TGI in [7], in test [8], in test [9] and in test [10] was over 100 µM in each case.

For the compound `COc1ccc(C=C2C(C)=NN(c3cccc(Cl)c3)C23C(Cl)C(=O)N3c2nc3ccccc3s2)cc1` (stereo not given), the TGI in test [1] is 40.9 µM; in [2], 50.9 µM; in test [3], 37.6 µM; in test [4], 93.5 µM; in test [5] it was 37.1 µM; in test [6], 32.9 µM. Besides, the TGI is 85.7 µM in test [7], over 100 µM in [8], 66.8 µM in test [9] and 38.9 µM in test [10].

As for `CC1CC(C)(C)CC(OCCN2CCCCC2)(c2ccccc2)C1` (stereo not given), the concentration for total growth inhibition (TGI) was 25.5 µM in [1]; 22.9 µM in [2]; 18.2 µM in test [3]; 24 µM in test [4]; 27.5 µM in test [5]; 22.9 µM in test [6]. Also, the TGI in test [7] was determined as 20.4 µM; in test [8], 29.5 µM; in test [9], 24.7 µM; in test [10], 33.4 µM.

In the case of `Nc1ncnc2c1ncn2CCCNO`, the TGI in [1], in test [2], in [3], in test [4], in [5] and in [6] was over 100 µM throughout. In addition, the TGI in test [7], in [8], in test [9] and in [10] was over 100 µM each time.

With `NCC1OC(OC2C(N)CC(N)C(O)C2OC2OC(CO)C(O)C2O)C(N)C(O)C1O` (stereo not given), the TGI in test [1], in [2], in test [3], in test [4], in test [5] and in test [6] was over 100 µM in each case. Further, the TGI in test [7] is over 50 µM; in test [8], over 100 µM; in test [9], over 100 µM; in [10], over 100 µM.

As to `CCOC(=O)C(NC(=O)c1ccccc1)(Nc1ccc(S(=O)(=O)Nc2cc(C)on2)cc1)C(F)(F)F` (stereo not given), the TGI in test [1] is over 100 µM; in test [2], over 100 µM; in test [3] it was over 100 µM; in test [4], over 10 µM; in [5], over 100 µM; in test [6] it was over 100 µM. The TGI in test [7], in [8], in test [9] and in test [10] was over 100 µM in each case.
